In patent US8287888B2, “Thermosensitive polyphosphazene-bioactive molecule conjugates, preparation method thereof and use thereof” (Korea Institute of Science and Technology, priority 2006, dated 2012):

Experiments:
[1] = Sol-gel phase transition with change of temperature (Brookfield rheometer); assay type: physicochemical
Method: The poly(organophosphazene) conjugated with a drug or bioactivemolecules obtained in Examples 1 to 11 were respectively dissolved in phosphate buffered saline (pH 7.4) at 4° C. so as to make solutions with concentrations of 10 wt %. The solutions were put into a chamber of a Brookfield DV-III+ Rheometer equipped with a thermostatic bath (TC-501).

[2] = Hydrolysis of the polymer with time by GPC molecular weight; assay type: physicochemical; settings: 10 wt % in PBS pH 7.4, 37° C., compared among Examples 3, 4 and 9
[3] = test system: human cervix adenocarcinoma (Hela); assay: Anti-cancer activity in vitro, MTT; assay type: cell-based
Method: (§1) In order to find out anticancer activity in vitro of the poly(organophosphazene) conjugated with anti-cancer drug of the present invention, the trial as follows was performed about the human breast adenocarcinoma (MCF-7, the Korea Cell Line Bank) and the human cervix adenocarcinoma (Hela, the Korea Cell Line Bank).
(§2) For the in vitro cell experiment, in order to measure the genesistasis concentration to 50% (IC50) toward the cancer cell of the poly(organophosphazene) conjugated with anticancer drug, the analytical method using 3-(4,5-dimethylthiazol-2-yl)-2,5-diphenyl-2H-tetrazolium bromide (MTT) was performed [T. Mosmann, J. Immunol. Method, 65, (1985) 55].
(§3) The materials for to measuring were respectively melted in the DMSO (dimethylsulfoxide) of the small amount, and they were diluted to the distilled water with 200 times. The materials solution were added to the cancer cell that is MCF-7(the Korea Cell Line Bank) and Hela (the Korea Cell Line Bank). Then, they were added to 96-well microtiter plater to 1.0×10^4 cell/ml (the concentration of the cancer cell). And they were cultivated for 2, 3, 4 days, respectively, with 37° C. in 5% CO2 condition.
(§4) MTT solution (20 μl) was mixed the cultivated cell with, and they were more cultivated for 4 hours with 37° C. in 5% CO2 condition. After the upper culture medium of each cell was removed, DMSO (100 μl) was added to a well and they were shaken in the room temperature to the plate shaker with for 20 minutes, thereby dissolving the formazan crystal generated by reducing of MTT.

[4] = test system: human breast adenocarcinoma (MCF-7); assay: Anti-cancer activity in vitro, MTT; assay type: cell-based
Method: as §1, §2, §3, §4

[5] = 10 wt % in phosphate buffered saline (pH 7.4)

poly[(isoleucineethylester)(aminomethoxypolyethyleneglycol 550)(glycylglycine)(glycylglycyldoxorubicin)phosphazene] [Example 3]
Gel solidity (maximum viscosity of the polymer solution) [1, 5]: 158 Pa · s
Max. gelling temp. (temperature where the viscosity of the polymer solution reaches the maximum point) [1, 5]: 38 °C
viscosity in 37° C. ([1]; compared among Examples 3, 4 and 9): the highest viscosity
speed of hydrolysis (reduced molecular weight by GPC) [2]: the most slowly hydrolyzed
Anti-cancer activity [IC50] ([3]; 2nd day): 1.477 µg/mL
Anti-cancer activity [IC50] ([3]; 3rd day): 1.065 µg/mL
Anti-cancer activity [IC50] ([3]; 4th day): 0.605 µg/mL
Anti-cancer activity [IC50] ([4]; MCF-7, 2nd day): 2.294 µg/mL
Anti-cancer activity [IC50] ([4]; MCF-7, 3rd day): 0.926 µg/mL
Anti-cancer activity [IC50] ([4]; MCF-7, 4th day): 0.798 µg/mL
